Assay: xn = mol fraction of the nth substance listed

NS(=O)(=O)O + CC(=O)N(C)C
298 K, 101.33 kPa
Conditions	viscosity [mPa·s]
x1 = 0.02772	1.19
x1 = 0.05584	1.637
x1 = 0.08283	2.268
x1 = 0.1075	3.241
x1 = 0.33	1.147
x1 = 0.67	1.499

OC1CCCCC1 + OC1CCCC1
viscosity [mPa·s], 100 kPa
Conditions	x2 = 0.1	x2 = 0.3	x2 = 0.5	x2 = 0.7	x2 = 0.9
303.15 K	34.92	23.18	16.54	12.51	9.2
308.15 K	27.86	19.17	13.78	10.67	7.88
313.15 K	21.32	15.13	11.11	8.78	6.57
318.16 K	16.48	11.96	9.04	7.2	5.49

CC(=O)O.NCCO + CCCCO
298.15 K, 101.3 kPa
Conditions	viscosity [mPa·s]
x2 = 0.088	1548
x2 = 0.179	734.1
x2 = 0.272	460.3
x2 = 0.369	325.3
x2 = 0.476	190.3
x2 = 0.574	74.63
x2 = 0.666	30.51
x2 = 0.776	19.04
x2 = 0.881	14.02

CCC(N)=O + [Al+3].[Cl-].[Cl-].[Cl-]
viscosity [mPa·s], 101 kPa
Conditions	x2 = 0.5	x2 = 0.52	x2 = 0.57	x2 = 0.6	x2 = 0.63
313 K	32.65	25.38	23.95	24.65	25.32
323 K	23.49	19.12	17.93	18.32	18.7

OC1CCCCC1 + Cc1ccc(Cl)cc1
303.15 K, 101 kPa
Conditions	viscosity [mPa·s]
x1 = 0.1115	4.565
x1 = 0.2202	8.427
x1 = 0.3262	12.25
x1 = 0.4296	16.24
x1 = 0.5305	20.28
x1 = 0.6289	24.45
x1 = 0.725	28.53
x1 = 0.8188	32.85
x1 = 0.9105	36.99

CCCCCCCO + O
Conditions	viscosity [mPa·s]
298.15 K, 101 kPa, x2 = 0.28	5.5

C1CCCCCCC1 + Cc1cccc(C)c1
viscosity [mPa·s], 101 kPa
Conditions	x2 = 0.1149	x2 = 0.1922	x2 = 0.2902	x2 = 0.412	x2 = 0.4831	x2 = 0.6078	x2 = 0.6874	x2 = 0.7916	x2 = 0.9058
308.15 K	1.376	1.182	1.004	0.8506	0.7816	0.6836	0.64	0.5877	0.5525
313.15 K	1.266	1.085	0.9357	0.7866	0.734	0.6372	0.6046	0.5645	0.5202

C[N+](C)(C)CCC[n+]1ccccc1.N#C[N-]C#N.N#C[N-]C#N + CO
viscosity [mPa·s], 100 kPa
Conditions	293.15 K	303.15 K	313.15 K
x1 = 0.2001	–	11.45	–
x1 = 0.8995	952.8	–	198.5
